Source: patent US10640497B2, “Microbiocidal oxadiazole derivatives” (SYNGENTA PARTICIPATIONS AG, priority 2015, dated 2020)

Tests used:
[1] = system: Puccinia recondita f. sp. tritici; experiment: Fungicidal activity against Puccinia recondita f. sp. tritici, wheat, leaf disc curative (brown rust); assay type: in vivo; settings: foliar, 144 h, wheat leaf segments, curative (applied 1 day after inoculation), 6-8 days after application, compared to untreated control
Procedure: (§1) Leaf disks or leaf segments of various plant species are cut from plants grown in a greenhouse. The cut leaf disks or segments are placed in multiwell plates (24-well format) onto water agar. The leaf disks are sprayed with a test solution before (preventative) or after (curative) inoculation. Compounds to be tested are prepared as DMSO solutions (max. 10 mg/ml) which are diluted to the appropriate concentration with 0.025% Tween20 just before spraying. The inoculated leaf disks or segments are incubated under defined conditions (temperature, relative humidity, light, etc.) according to the respective test system. A single evaluation of disease level is carried out 3 to 14 days after inoculation, depending on the pathosystem. Percent disease control relative to the untreated check leaf disks or segments is then calculated. Wheat leaf segments cv. Kanzler are placed on agar in multiwell plates (24-well format). The leaf segments are inoculated with a spore suspension of the fungus. Plates are stored in darkness at 19° C. and 75% rh. The formulated test compound diluted in water is applied 1 day after inoculation. The leaf segments are incubated at 19° C. and 75% rh under a light regime of 12 h light/12 h darkness in a climate cabinet and the activity of a compound is assessed as percent disease control compared to untreated when an appropriate level of disease damage appears in untreated check leaf segments (6-8 days after application).

[2] = system: Puccinia recondita f. sp. tritici; experiment: Fungicidal activity against Puccinia recondita f. sp. tritici, wheat, leaf disc preventative (brown rust); assay type: in vivo; settings: foliar, wheat leaf segments, preventative (inoculated 1 day after application), 7-9 days after application, compared to untreated control
Procedure: as §1, with “plates (24-well format) and sprayed with the formulated test compound diluted in water. The leaf” for “plates (24-well format). The leaf”, “of the fungus 1 day” for “of the fungus. Plates are stored in darkness at 19° C. and 75% rh. The formulated test compound diluted in water is applied 1 day”, “day after application. The inoculated” for “day after inoculation. The leaf”, “application. The inoculated leaf segments” for “inoculation. The leaf segments”, “leaf segments (7-9 days after” for “leaf segments (6-8 days after”

[3] = system: Glomerella lagenarium (Colletotrichum lagenarium); experiment: Fungicidal activity against Glomerella lagenarium (Colletotrichum lagenarium), liquid culture, cucumber, preventative (anthracnose); assay type: cell-based; settings: Colletotrichum orbiculare, liquid culture (PDB), growth inhibition measured photometrically 3-4 days after application, compared to untreated control
Procedure: Mycelia fragments or conidia suspensions of a fungus, prepared either freshly from liquid cultures of the fungus or from cryogenic storage, are directly mixed into nutrient broth. DMSO solutions of the test compound (max. 10 mg/ml) is diluted with 0.025% Tween20 by a factor of 50 and 10 μl of this solution is pipetted into a microtiter plate (96-well format). The nutrient broth containing the fungal spores/mycelia fragments is then added to give an end concentration of the tested compound. The test plates are incubated in the dark at 24° C. and 96% relative humidity. The inhibition of fungal growth is determined photometrically after 2 to 7 days, depending on the pathosystem, and percent antifungal activity relative to the untreated check is calculated. Conidia of the fungus from cryogenic storage are directly mixed into nutrient broth (PDB potato dextrose broth). After placing a (DMSO) solution of test compound into a microtiter plate (96-well format), the nutrient broth containing the fungal spores is added. The test plates are incubated at 24° C. and the inhibition of growth is measured photometrically 3-4 days after application.

Phakopsora pachyrhizi = experiment: Fungicidal activity against Phakopsora pachyrhizi, soybean, leaf disc preventative (Asian soybean rust); assay type: in vivo; settings: foliar, 288 h, 12-14 days after application, compared to untreated control
Procedure: Leaf disks or leaf segments of various plant species are cut from plants grown in a greenhouse. The cut leaf disks or segments are placed in multiwell plates (24-well format) onto water agar. The leaf disks are sprayed with a test solution before (preventative) or after (curative) inoculation. Compounds to be tested are prepared as DMSO solutions (max. 10 mg/ml) which are diluted to the appropriate concentration with 0.025% Tween20 just before spraying. The inoculated leaf disks or segments are incubated under defined conditions (temperature, relative humidity, light, etc.) according to the respective test system. A single evaluation of disease level is carried out 3 to 14 days after inoculation, depending on the pathosystem. Percent disease control relative to the untreated check leaf disks or segments is then calculated. Soybean leaf disks are placed on water agar in multiwell plates (24-well format) and sprayed with the formulated test compound diluted in water. One day after application leaf discs are inoculated by spraying a spore suspension on the lower leaf surface. After an incubation period in a climate cabinet of 24-36 hours in darkness at 20° C. and 75% rh leaf disc are kept at 20° C. with 12 h light/day and 75% rh. The activity of a compound is assessed as percent disease control compared to untreated when an appropriate level of disease damage appears in untreated check leaf disks (12-14 days after application).

O=C1CCCCN1Cc1ccc(-c2noc(C(F)(F)F)n2)nc1 [Compound A-53, 1-[[6-[5-(trifluoromethyl)-1,2,4-oxadiazol-3-yl]-3-pyridyl]methyl]piperidin-2-one]
80 to 89 °C: melting point
≥ 80%: pest or weed control at 200 ppm [1] | pest or weed control at 200 ppm [2]

CC(C)(C)OC(=O)N1CC(=O)N(Cc2ccc(-c3noc(C(F)(F)F)n3)cc2)C(=O)C1 [Compound A-62, tert-butyl 3,5-dioxo-4-[[4-[5-(trifluoromethyl)-1,2,4-oxadiazol-3-yl]phenyl]methyl]piperazine-1-carboxylate]
≥ 80%: inhibition of growth at 20 ppm [3] | pest or weed control at 200 ppm [2]
94 to 102 °C: melting point

CON1CCN(c2ccc(-c3noc(C(F)(F)F)n3)cc2)C1=O [Compound C-3, 1-methoxy-3-[4-[5-(trifluoromethyl)-1,2,4-oxadiazol-3-yl]phenyl]imidazolidin-2-one]
185 to 190 °C: melting point
≥ 80%: inhibition of growth at 20 ppm [3]

O=C1CCCCCN1Cc1ccc(-c2noc(C(F)(F)F)n2)c(F)c1 [Compound A-69, 1-[[3-fluoro-4-[5-(trifluoromethyl)-1,2,4-oxadiazol-3-yl]phenyl]methyl]azepan-2-one]
≥ 80%: inhibition of growth at 20 ppm [3] | pest or weed control at 200 ppm [2]
80 to 84 °C: melting point

CN1CCN(Cc2ccc(-c3noc(C(F)(F)F)n3)cc2)C1=O [Compound A-46, 1-methyl-3-[[4-[5-(trifluoromethyl)-1,2,4-oxadiazol-3-yl]phenyl]methyl]imidazolidin-2-one]
≥ 80%: pest or weed control at 200 ppm (Phakopsora pachyrhizi) | pest or weed control at 200 ppm [1] | inhibition of growth at 20 ppm [3] | pest or weed control at 200 ppm [2]

O=C1CCCN1Cc1ccc(-c2noc(C(F)(F)F)n2)cc1 [Compound A-1, 1-[[4-[5-(trifluoromethyl)-1,2,4-oxadiazol-3-yl]phenyl]methyl]pyrrolidin-2-one]
≥ 80%: pest or weed control at 200 ppm (Phakopsora pachyrhizi) | pest or weed control at 200 ppm [1] | inhibition of growth at 20 ppm [3] | pest or weed control at 200 ppm [2]

CCOC(=O)N1CCN(Cc2ccc(-c3noc(C(F)(F)F)n3)cc2)C(=O)C1 [Compound A-32, ethyl 3-oxo-4-[[4-[5-(trifluoromethyl)-1,2,4-oxadiazol-3-yl]phenyl]methyl]piperazine-1-carboxylate]
≥ 80%: pest or weed control at 200 ppm (Phakopsora pachyrhizi) | pest or weed control at 200 ppm [1] | inhibition of growth at 20 ppm [3] | pest or weed control at 200 ppm [2]

O=C1CCCCCN1Cc1ccc(-c2noc(C(F)(F)F)n2)cc1 [Compound A-70, 1-[[4-[5-(trifluoromethyl)-1,2,4-oxadiazol-3-yl]phenyl]methyl]azepan-2-one]
≥ 80%: pest or weed control at 200 ppm (Phakopsora pachyrhizi) | pest or weed control at 200 ppm [1] | inhibition of growth at 20 ppm [3] | pest or weed control at 200 ppm [2]

CC1CCCN(Cc2ccc(-c3noc(C(F)(F)F)n3)cc2)C1=O (stereo not shown) [Compound A-10, 3-methyl-1-[[4-[5-(trifluoromethyl)-1,2,4-oxadiazol-3-yl]phenyl]methyl]piperidin-2-one]
≥ 80%: pest or weed control at 200 ppm (Phakopsora pachyrhizi) | pest or weed control at 200 ppm [1] | inhibition of growth at 20 ppm [3] | pest or weed control at 200 ppm [2]

CC1CCC(=O)N(Cc2ccc(-c3noc(C(F)(F)F)n3)cc2)C1 (stereo not shown) [Compound A-18, 5-methyl-1-[[4-[5-(trifluoromethyl)-1,2,4-oxadiazol-3-yl]phenyl]methyl]piperidin-2-one]
≥ 80%: pest or weed control at 200 ppm (Phakopsora pachyrhizi) | pest or weed control at 200 ppm [1] | inhibition of growth at 20 ppm [3] | pest or weed control at 200 ppm [2]

CON(C)C(=O)N1CCN(Cc2ccc(-c3noc(C(F)(F)F)n3)cc2)C(=O)C1 [Compound A-39, N-methoxy-N-methyl-3-oxo-4-[[4-[5-(trifluoromethyl)-1,2,4-oxadiazol-3-yl]phenyl]methyl]piperazine-1-carboxamide]
≥ 80%: pest or weed control at 200 ppm (Phakopsora pachyrhizi) | pest or weed control at 200 ppm [1] | inhibition of growth at 20 ppm [3] | pest or weed control at 200 ppm [2]

CN1CCCN(Cc2ccc(-c3noc(C(F)(F)F)n3)cc2)C1=O [Compound A-48, 1-methyl-3-[[4-[5-(trifluoromethyl)-1,2,4-oxadiazol-3-yl]phenyl]methyl]hexahydro-pyrimidin-2-one]
≥ 80%: pest or weed control at 200 ppm (Phakopsora pachyrhizi) | pest or weed control at 200 ppm [1] | inhibition of growth at 20 ppm [3] | pest or weed control at 200 ppm [2]

CC1(C)CCCN(Cc2ccc(-c3noc(C(F)(F)F)n3)cc2)C1=O [Compound A-16, 3,3-dimethyl-1-[[4-[5-(trifluoromethyl)-1,2,4-oxadiazol-3-yl]phenyl]methyl]piperidin-2-one]
≥ 80%: pest or weed control at 200 ppm (Phakopsora pachyrhizi) | pest or weed control at 200 ppm [1] | inhibition of growth at 20 ppm [3] | pest or weed control at 200 ppm [2]

O=C1CCCC2(CC2)N1Cc1ccc(-c2noc(C(F)(F)F)n2)cc1 [Compound A-25, 4-[[4-[5-(trifluoromethyl)-1,2,4-oxadiazol-3-yl]phenyl]methyl]-4-azaspiro[2.5]octan-5-one]
≥ 80%: pest or weed control at 200 ppm (Phakopsora pachyrhizi) | pest or weed control at 200 ppm [1] | inhibition of growth at 20 ppm [3] | pest or weed control at 200 ppm [2]

O=C1CN(C(=O)C2CC2)CCN1Cc1ccc(-c2noc(C(F)(F)F)n2)cc1 [Compound A-40, 4-(cyclopropane-carbonyl)-1-[[4-[5-(trifluoromethyl)-1,2,4-oxadiazol-3-yl]phenyl]methyl]piperazin-2-one]
≥ 80%: pest or weed control at 200 ppm (Phakopsora pachyrhizi) | pest or weed control at 200 ppm [1] | inhibition of growth at 20 ppm [3] | pest or weed control at 200 ppm [2]

O=C1CCN1Cc1ccc(-c2noc(C(F)(F)F)n2)cc1 [Compound A-23, 1-[[4-[5-(trifluoromethyl)-1,2,4-oxadiazol-3-yl]phenyl]methyl]azetidin-2-one]
≥ 80%: pest or weed control at 200 ppm (Phakopsora pachyrhizi) | pest or weed control at 200 ppm [1] | inhibition of growth at 20 ppm [3] | pest or weed control at 200 ppm [2]

CC1CCN(Cc2ccc(-c3noc(C(F)(F)F)n3)cc2)C(=O)C1 (stereo not shown) [Compound A-17, 4-methyl-1-[[4-[5-(trifluoromethyl)-1,2,4-oxadiazol-3-yl]phenyl]methyl]piperidin-2-one]
≥ 80%: pest or weed control at 200 ppm (Phakopsora pachyrhizi) | pest or weed control at 200 ppm [1] | inhibition of growth at 20 ppm [3] | pest or weed control at 200 ppm [2]

O=C1CCON1Cc1ccc(-c2noc(C(F)(F)F)n2)c(F)c1F [Compound A-66, 2-[[2,3-difluoro-4-[5-(trifluoromethyl)-1,2,4-oxadiazol-3-yl]phenyl]methyl]isoxazolidin-3-one]
≥ 80%: pest or weed control at 200 ppm (Phakopsora pachyrhizi) | pest or weed control at 200 ppm [1] | inhibition of growth at 20 ppm [3] | pest or weed control at 200 ppm [2]
